Where “and” joins values, the source holds several entries; their conditions need not be identical. Equal values may be shown once.
Test: xn = mol fraction of the nth substance listed
Conditions: 100 kPa

CN1CCCN(C)C1=O + O
viscosity
Conditions | 303.15 K | 308.15 K | 313.15 K | 318.15 K | 323.15 K
x1 = 0.007139 | 0.942 mPa·s | 0.848 mPa·s | 0.769 mPa·s | 0.699 mPa·s | –
x1 = 0.01508 | 1.127 mPa·s | 1.012 mPa·s | 0.919 mPa·s | 0.843 mPa·s | –
x1 = 0.0297 | 1.386 mPa·s | 1.236 mPa·s | 1.112 mPa·s | 1.002 mPa·s | –
x1 = 0.0568 | 1.979 mPa·s | 1.733 mPa·s | 1.538 mPa·s | 1.379 mPa·s | –
x1 = 0.08573 | 2.774 mPa·s | 2.371 mPa·s | 2.05 mPa·s | 1.791 mPa·s | –
x1 = 0.1227 | 3.836 mPa·s | 3.224 mPa·s | 2.741 mPa·s | 2.354 mPa·s | –
x1 = 0.1461 | 4.568 mPa·s | 3.799 mPa·s | 3.201 mPa·s | 2.728 mPa·s | –
x1 = 0.1745 | 5.342 mPa·s | 4.401 mPa·s | 3.676 mPa·s | 3.114 mPa·s | –
x1 = 0.2062 | 5.943 mPa·s | 4.87 mPa·s | 4.051 mPa·s | 3.414 mPa·s | –
x1 = 0.2453 | 6.471 mPa·s | 5.287 mPa·s | 4.386 mPa·s | 3.685 mPa·s | –
x1 = 0.2961 | 6.828 mPa·s | 5.569 mPa·s | 4.616 mPa·s | 3.878 mPa·s | –
x1 = 0.3486 | 6.796 mPa·s | 5.568 mPa·s | 4.626 mPa·s | 3.9 mPa·s | –
x1 = 0.3968 | 6.483 mPa·s | 5.332 mPa·s | 4.45 mPa·s | 3.744 mPa·s | –
x1 = 0.4616 | 6.161 mPa·s | 5.13 mPa·s | 4.326 mPa·s | 3.692 mPa·s | –
x1 = 0.5081 | 5.768 mPa·s | 4.838 mPa·s | 4.11 mPa·s | 3.531 mPa·s | –
x1 = 0.5809 | 5.129 mPa·s | 4.357 mPa·s | 3.75 mPa·s | 3.257 mPa·s | –
x1 = 0.6498 | 4.532 mPa·s | 3.892 mPa·s | 3.37 mPa·s | 2.946 mPa·s | –
x1 = 0.6917 | 4.245 mPa·s | 3.672 mPa·s | 3.202 mPa·s | 2.817 mPa·s | –
x1 = 0.797 | 3.571 mPa·s | 3.134 mPa·s | 2.772 mPa·s | 2.468 mPa·s | –
x1 = 0.8669 | 3.203 mPa·s | 2.837 mPa·s | 2.531 mPa·s | 2.274 mPa·s | –
x1 = 0.9357 | 2.957 mPa·s | 2.647 mPa·s | 2.384 mPa·s | 2.16 mPa·s | –
x1 = 0.9554 | 2.834 mPa·s | 2.533 mPa·s | 2.283 mPa·s | 2.071 mPa·s | –
x2 = 0.0016 | – | 2.348 mPa·s and 2.365 mPa·s | 2.126 mPa·s and 2.141 mPa·s | 1.937 mPa·s and 1.95 mPa·s | 1.777 mPa·s and 1.784 mPa·s
x2 = 0.0169 | – | 2.425 mPa·s | 2.191 mPa·s | 1.992 mPa·s | 1.819 mPa·s

— the CheMixHub viscosity set
